Where two headings read alike, the source gives them in different places. Values belong to the molecule of their own block, whether it stands above or below them.
Experiments:
KDR kinase = KDR kinase (Homo sapiens (Human), UniProt P35968); test: Evaluation of KDR kinase inhibiting activity (cell system), HUVEC, AlphaLISA; type: cell-based
Protocol: HUVEC cells were seeded on a plate at a cell density of 1500 cells per well, and then cultured overnight. The test compound (10 uM, 2.5 uM, 625 nM, 156 nM, […], 10 nM, 2.5 nM, or 0.6 nM) was added to each well, followed by culturing the obtained mixture for 2 hours. Thereafter, VEGF165 (Peprotech, #100-20) was added to the culture at a final concentration of 50 ng/ml, and the obtained mixture was then reacted at 37° C. for 5 minutes. Thereafter, the resulting cells were lysed with 50 ul of Lysis buffer included in AlphaLISA SureFire Ultra (Perkin Elmer, # ALSU-PVGFR-A500), and Acceptor beads and Donor beads were then added to 10 ul of the cell lysate according to the instruction manual included with the aforementioned kit. The mixture thus obtained was reacted at room temperature overnight, and thereafter, a KDR kinase inhibiting activity rate was measured using Envision (Perkin Elmer).
The value for a well to which only the Lysis buffer had been added was subtracted as a background from all of the values. Thereafter, the value for a well to which […] had been added and the test compound had not been added was defined as a KDR kinase activity of 100%, and the obtained value was corrected.

RET-wild type = RET-wild type (Homo sapiens (Human), UniProt P07949); test: Evaluation of RET kinase inhibiting activity (cell system), Ba/F3 cells overexpressing Myc tagged RET; type: cell-based
Chain of RET-wild type (P07949 29-1114): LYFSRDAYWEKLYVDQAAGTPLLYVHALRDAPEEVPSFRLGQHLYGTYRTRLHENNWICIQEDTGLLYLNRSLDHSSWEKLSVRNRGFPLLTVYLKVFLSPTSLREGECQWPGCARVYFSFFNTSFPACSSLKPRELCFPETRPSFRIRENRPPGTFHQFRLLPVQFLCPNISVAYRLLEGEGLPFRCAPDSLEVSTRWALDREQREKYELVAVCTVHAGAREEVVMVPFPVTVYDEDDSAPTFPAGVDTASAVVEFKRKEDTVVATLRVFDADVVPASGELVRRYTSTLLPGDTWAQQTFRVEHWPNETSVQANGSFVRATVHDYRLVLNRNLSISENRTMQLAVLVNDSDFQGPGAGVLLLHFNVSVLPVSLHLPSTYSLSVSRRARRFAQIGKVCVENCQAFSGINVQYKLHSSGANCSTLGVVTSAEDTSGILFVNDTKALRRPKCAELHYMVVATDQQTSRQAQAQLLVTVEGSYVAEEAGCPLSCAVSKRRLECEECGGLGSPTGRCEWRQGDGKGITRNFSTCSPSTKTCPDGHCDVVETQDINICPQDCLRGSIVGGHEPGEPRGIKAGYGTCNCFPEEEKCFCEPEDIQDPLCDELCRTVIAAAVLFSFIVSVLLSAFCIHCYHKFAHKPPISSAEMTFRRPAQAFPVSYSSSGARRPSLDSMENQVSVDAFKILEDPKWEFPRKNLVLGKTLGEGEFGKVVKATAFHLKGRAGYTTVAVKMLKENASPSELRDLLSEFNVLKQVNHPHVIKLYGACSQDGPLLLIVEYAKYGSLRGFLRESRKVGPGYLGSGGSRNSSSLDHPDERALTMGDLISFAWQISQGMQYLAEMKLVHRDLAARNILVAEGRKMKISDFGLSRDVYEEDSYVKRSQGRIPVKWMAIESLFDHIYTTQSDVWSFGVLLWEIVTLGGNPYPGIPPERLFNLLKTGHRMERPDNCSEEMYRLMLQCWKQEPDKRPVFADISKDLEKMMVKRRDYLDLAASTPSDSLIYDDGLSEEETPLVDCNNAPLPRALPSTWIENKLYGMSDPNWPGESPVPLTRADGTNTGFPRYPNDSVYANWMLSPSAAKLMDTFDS
Protocol: (§1) Thereafter, 1 mL of Cell Lysis Buffer (Cell signaling technology, #9803), a single tablet of Phosphatase inhibitor (Roche, #04906837001), and a single tablet of Protease inhibitor (Roche, #0469312400) were added to 9 mL of MilliQ, and 20 ul of the obtained mixture was then added to each well. The mixture thus obtained was placed on ice for 20 minutes, so that the cells were lysed. A 5-ul aliquot was taken from the cell lysate, and thereafter, 64 nl of Myc antibody (Cell signaling technology, #3946) and Streptavidin Donor beads in an equal amount of 102 nl of P-Tyr-100 Acceptor beads included in the Alpha Screen Phosphotyrosine (P-Tyr-100) assay kit (Perkin Elmer, #6760620C) were added to the aliquot in accordance with the instruction manual included with the aforementioned assay kit. The obtained mixture was reacted at room temperature overnight, and a RET kinase inhibiting activity rate was then measured using Envision.

[1] = system: thyroid gland cancer cell line TT having RET activating mutation (C634W); test: Cell growth inhibitory activity, thyroid gland cancer cell line TT; type: cell-based; conditions: Homo sapiens, 216 h; TT cells, 9 days, CellTiter-Glo
Protocol: The cell growth inhibitory activity of the test compound on the thyroid gland cancer cell line TT having RET activating mutation (C634W) (Biochemical and Biophysical Research Communications. 1995 Feb. 27 (207), 1022-1028) was measured.
TT cells were seeded on a 96-well plate at a cell density of 5,000 cells per well, and were then cultured at 37° C. in the presence of 5% CO2 overnight in an F-12K nutrient mixture medium containing 10% FBS. Thereafter, the compound was diluted, and then added to the 96-well plate. As a negative control, dimethyl sulfoxide (hereinafter referred to as DMSO) was added. The obtained mixture was cultured at 37° C. in the presence of 5% CO2 for 9 days, and thereafter, a cell count measuring reagent CellTiter-Glo® Luminescent Cell Viability Assay was added to the culture, followed by stirring the mixture. Thereafter, using a luminescence measurement device Envision (Perkin Elmer), the luminescence intensity was measured. The measurement value of a well to which only the medium had been added was define as a survival rate of 0%, and the measurement value of a well to which DMSO had been added was defined as a survival rate of 100%. The survival rate of the TT cells in the presence of each concentration of the test compound was calculated.

[2] = system: non-small cell lung cancer cell line LC-2/ad having a CCDC6-RET fusion gene; test: Cell growth inhibitory activity, non-small cell lung cancer cell line LC-2/ad; type: cell-based; conditions: Homo sapiens, 216 h; LC-2/ad cells, 9 days, CellTiter-Glo
Protocol: The cell growth inhibitory activity of the test compound on the non-small cell lung cancer cell line LC-2/ad having a CCDC6-RET fusion gene (RIKEN, J Thorac Oncol. 2012 December, 7(12), 1872-6) was measured.
LC-2/ad cells were seeded on a 96-well plate at a cell density of 5,000 cells per well, and then cultured at 37° C. in the presence of 5% CO2 overnight in a medium prepared by mixing RPMI-1640 containing 15% FBS and 25 mM HEPES with Ham's F12 Mixture at a mixing ratio of 1:1. Thereafter, the test compound was diluted, and then added to the 96-well plate. As a negative control, dimethyl sulfoxide (hereinafter referred to as DMSO) was added. The obtained mixture was cultured at 37° C. in the presence of 5% CO2 for 9 days, and thereafter, a cell count measuring reagent CellTiter-Glo® Luminescent Cell Viability Assay (Promega, # G7571) was added to the culture, followed by stirring the mixture. Thereafter, using a luminescence measurement device Envision, the luminescence intensity was measured. The measurement value of a well to which only the medium had been added was define as a survival rate of 0%, and the measurement value of a well to which DMSO had been added was defined as a survival rate of 100%. The survival rate of the LC-2/ad cells in the presence of each concentration of the test compound was calculated.

[3] = target: RET recombinant protein (RET-wild type) (Homo sapiens (Human), UniProt P07949); test: Evaluation of RET kinase inhibiting activity (cell-free system), mobility shift assay; type: biochemical
Chain of RET recombinant protein (RET-wild type) (P07949 29-1114): as above
Protocol: (§2) 19 uL of the RET kinase solution was added to each of lines A to P of a 384-well plate, and thereafter, the test compound at each concentration was added to lines C to N, and further, 1 uL of dimethyl sulfoxide (hereinafter referred to as DMSO) was added to each of lines A, B, O and P. Thereafter, the obtained mixtures were each preincubated at room temperature for 20 minutes. Furthermore, a substrate solution A containing ATP (final concentration: 1 mM) and a substrate solution B containing no ATP, both in addition to a reaction buffer and FL-Peptide 22 (PerkinElmer, #760366, final concentration: 1.5 uM) were produced. The substrate solution A was added in an amount of 5 uL to lines B to 0, whereas the substrate solution B was added in an amount of 5 uL to lines A and P. The obtained mixtures were each incubated at 28° C. for 45 minutes. A reaction termination solution (100 mM HEPES (pH 7.4), 0.015% Briji-35, 40 mM EDTA, and 0.1% Coating Reagent 3) was added in an amount of 40 ul to the reaction mixture, so as to terminate the reaction.
(§3) Using EZ Reader II (Perkin Elmer), a substrate peptide was separated from a phosphorylated peptide in the reaction solution, and the product ratio (P/(P+S)) calculated from the peak (S) of the substrate peptide and the peak (P) of the phosphorylated peptide was used for evaluation. The inhibition of the test compound having each concentration was obtained by the following formula (automatically calculated using the software of EZ Reader II System). Inhibition (%)=100×(1−Ci/Co) (a) Ci: Conversion rate of a reaction of a test compound with substrate solution A−conversion rate of a reaction of DMSO with substrate solution B Co: Conversion rate of a reaction of DMSO with substrate solution A−conversion rate of a reaction of DMSO with substrate solution B
(§4) Based on the inhibition rates of the test compound at 12 different concentrations according to the formula (a), a 4-parameter logistic regression curve was drawn. At this time, the 4-parameter logistic regression equation is expressed as follows. Inhibition (%)=Bottom+(Top−Bottom)/(1+(X/IC50)^^slope) (b) Top: Upward asymptote Slope: Slope parameter IC50: Value X of (Top+Bottom)/2 Bottom: Downward asymptote X: Concentration of test compound
(§5) First, any given initial values are inputted into Top, Slope, IC50, Bottom (Top=100, Slope=−1, IC50=approx. IC50, and Bottom=0), so that a regression curve was drawn. Subsequently, a least-squares method was executed to the sum of squares of a difference between the measured value and the estimated value obtained from formula (b) to calculate the coefficient of the 4-parameter logistic regression equation, so as to calculate IC50.

[4] = target: RET-Gatekeeper mutation (V804L) recombinant protein (Homo sapiens (Human), UniProt P07949, V804L); test: Evaluation of RET kinase inhibiting activity (cell-free system), gatekeeper mutant; type: biochemical
Chain of RET-Gatekeeper mutation (V804L) recombinant protein (P07949 29-1114 V804L): as the sequence (P07949 29-1114) above, with V776L counted along it
Protocol: as §2, §3, §4, §5

RET-V804L = RET-V804L (Homo sapiens (Human), UniProt P07949, V804L); test: Evaluation of RET kinase inhibiting activity (cell system), Ba/F3 cells overexpressing RET (V804L) mutant; type: cell-based; conditions: Ba/F3, compound 2 hours
Chain of RET-V804L (P07949 29-1114 V804L): as the sequence (P07949 29-1114) above, with V776L counted along it
Protocol: as §1

[5] = system: phosphorylated RET in Ba/F3-RET-V804M tumors; test: One shot PKPD analysis, Ba/F3-RET-V804M tumors; type: in vivo, mice
[6] = comparator compounds, Form: Free, read-out: IC50 (nM) RET
[7] = cell system, Form: Mesylate, read-out: IC50 (nM) KDR
[8] = cell system, comparator compounds, Form: Free, read-out: IC50 (nM) KDR

Chain of KDR kinase (P35968 20-1356): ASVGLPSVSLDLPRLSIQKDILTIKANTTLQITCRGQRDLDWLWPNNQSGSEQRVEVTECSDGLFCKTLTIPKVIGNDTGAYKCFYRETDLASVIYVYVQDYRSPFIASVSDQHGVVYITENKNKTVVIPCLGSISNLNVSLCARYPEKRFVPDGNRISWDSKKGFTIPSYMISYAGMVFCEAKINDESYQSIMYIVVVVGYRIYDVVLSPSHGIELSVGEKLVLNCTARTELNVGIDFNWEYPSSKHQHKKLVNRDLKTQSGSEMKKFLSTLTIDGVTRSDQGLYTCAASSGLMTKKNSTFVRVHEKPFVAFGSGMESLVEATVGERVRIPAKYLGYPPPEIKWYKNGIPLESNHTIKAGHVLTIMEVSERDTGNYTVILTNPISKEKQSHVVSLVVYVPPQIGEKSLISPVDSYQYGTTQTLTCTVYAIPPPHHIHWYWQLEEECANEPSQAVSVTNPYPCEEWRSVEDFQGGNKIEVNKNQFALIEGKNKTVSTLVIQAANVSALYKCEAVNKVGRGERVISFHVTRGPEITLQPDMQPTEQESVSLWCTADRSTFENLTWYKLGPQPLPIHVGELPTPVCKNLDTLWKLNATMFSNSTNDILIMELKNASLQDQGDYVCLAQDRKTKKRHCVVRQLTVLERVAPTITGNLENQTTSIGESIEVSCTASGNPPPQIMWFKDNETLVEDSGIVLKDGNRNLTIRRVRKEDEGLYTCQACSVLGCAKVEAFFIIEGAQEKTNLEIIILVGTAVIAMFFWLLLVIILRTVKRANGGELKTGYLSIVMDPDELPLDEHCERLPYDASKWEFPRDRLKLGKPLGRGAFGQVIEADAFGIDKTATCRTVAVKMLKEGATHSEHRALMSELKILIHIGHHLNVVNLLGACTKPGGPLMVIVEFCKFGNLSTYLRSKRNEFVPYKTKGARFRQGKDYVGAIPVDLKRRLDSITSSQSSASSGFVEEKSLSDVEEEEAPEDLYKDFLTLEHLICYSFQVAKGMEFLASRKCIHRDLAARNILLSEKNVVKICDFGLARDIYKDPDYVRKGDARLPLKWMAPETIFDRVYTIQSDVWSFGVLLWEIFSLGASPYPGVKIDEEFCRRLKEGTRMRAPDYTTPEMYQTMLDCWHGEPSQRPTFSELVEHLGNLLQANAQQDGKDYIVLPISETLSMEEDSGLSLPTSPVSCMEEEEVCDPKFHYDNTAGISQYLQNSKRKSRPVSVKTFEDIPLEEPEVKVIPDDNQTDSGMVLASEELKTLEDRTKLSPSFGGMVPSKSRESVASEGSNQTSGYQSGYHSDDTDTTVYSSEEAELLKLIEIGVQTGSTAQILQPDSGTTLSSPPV

IC50 (RET-wild type; Form: Free, read-out: IC50 (nM) RET): 18 nM
Compound: COc1cc2cc(-c3ccc(CC(=O)Nc4cc(C(C)(C)C(F)(F)F)on4)cn3)cnc2cc1OC [Example 1, 2-[6-(6,7-Dimethoxyquinolin-3-yl)pyridin-3-yl]-N-[5-(1,1,1-trifluoro-2-methylpropan-2-yl)-1,2-oxazol-3-yl]acetamide]

IC50 (KDR kinase; [8]): 6 nM | IC50 (RET-wild type; [6]): 8 nM
Compound: COc1cc2cc(-c3ccc(CC(=O)Nc4cc(C(C)(C)C(F)(F)F)no4)c(F)c3)cnc2cc1OC [Ref Ex. 3, 2-[4-(6,7-Dimethoxyquinolin-3-yl)-2-fluorophenyl]-N-[3-(1,1,1-trifluoro-2-methylpropan-2-yl)-1,2-oxazol-5-yl]acetamide, reference compound]

IC50 (KDR kinase; [7]): 828 nM
Compound: COc1cc2cc(-c3ccc(CC(=O)Nc4cc(C(C)(C)C(F)(F)F)on4)cn3)cnc2cc1OC [Example 2, 2-[6-(6,7-Dimethoxyquinolin-3-yl)pyridin-3-yl]-N-[5-(1,1,1-trifluoro-2-methylpropan-2-yl)-1,2-oxazol-3-yl]acetamide Methanesulfonate]

IC50 (KDR kinase; [8]): 9 nM | IC50 (RET-wild type; [6]): 7 nM
Compound: COc1cc2ncc(-c3ccc(CC(=O)Nc4cc(C(C)(C)C(F)(F)F)on4)cc3)nc2cc1OC [Ex. 8, reference compound]

inhibitory effect in vitro ([3]; in vitro): strong inhibitory effect | IC50 ([3]; non-cell system, read-out: Biochemical assay (non-cell system) IC50 (nM) RET-WT): 1.5 nM | IC50 ([4]; non-cell system, read-out: Biochemical assay (non-cell system) IC50 (nM) RET-V804L): 1.7 nM | exposure in tumors ([5]; Ba/F3-RET-V804M tumors, 10 mg/kg oral): poor exposure in tumors
Compound: COc1cc2ncc(-c3cnc(CC(=O)Nc4cc(C(C)(C)C(F)(F)F)on4)c(F)c3)nc2cc1OC [Compound 229, reference compound]
suppression of phosphorylated RET (pRET) in Ba/F3-RET-V804M tumors ([5]; 10 mg/kg oral): did not suppress | Relative phosphorylation of RET (%) in Ba/F3-RET-V804M tumors ([5]; Dose: 10 mg/kg oral, six hours after administration, relative to vehicle): 98%

Further lines, the molecule ahead of its results:

Compound: COc1cc2cc(-c3ccc(CC(=O)Nc4cc(C(C)(C)C(F)(F)F)no4)cc3)cnc2cc1OC [Ref Ex. 1, 2-[4-(6,7-Dimethoxyquinolin-3-yl)phenyl]-N-[3-(1,1,1-trifluoro-2-methylpropan-2-yl)-1,2-oxazol-5-yl]-acetamide, reference compound]
IC50 (KDR kinase; cell system, comparator compounds, Form: Mesylate, read-out: IC50 (nM) KDR): 7 nM | IC50 (RET-wild type; [6]): 8 nM

Compound: COc1cc2cc(-c3ccc(CC(=O)Nc4cc(C(C)(C)C(F)(F)F)n[nH]4)cn3)cnc2cc1OC [Example 6, 2-[6-(6,7-Dimethoxyquinolin-3-yl)pyridin-3-yl]-N-[3-(1,1,1-trifluoro-2-methylpropan-2-yl)-1H-pyrazol-5-yl]acetamide Methanesulfonate]
IC50 (KDR kinase; KDR, HUVEC cells, VEGF165 50 ng/ml, compound 2 hours, read-out: IC50): 566 nM | IC50 (KDR kinase; [7]): 566 nM

Compound: CCc1cc2c(cc1N1CCC(N3CCOCC3)CC1)C(C)(C)c1[nH]c3cc(C#N)ccc3c1C2=O [Alectinib, 9-Ethyl-6,6-dimethyl-8-[4-(morpholin-4-yl)piperidin-1-yl]-11-oxo-6,11-dihydro-5H-benzo[b]carbazole-3-carbonitrile, reference compound]
IC50 [1]: 112 nM | IC50 [2]: 308 nM

Compound: COc1cc2cc(-c3ccc(CC(=O)Nc4cc(C(C)(C)C(F)(F)F)n[nH]4)cn3)cnc2cc1OC [Example 5, 2-[6-(6,7-Dimethoxyquinolin-3-yl)pyridin-3-yl]-N-[3-(1,1,1-trifluoro-2-methylpropan-2-yl)-1H-pyrazol-5-yl]acetamide]
IC50 ([3]; cell-free system, ATP 1 mM, read-out: RET-wild type IC50): 2.2 nM | IC50 ([4]; cell-free system, ATP 1 mM, read-out: RET-V804L IC50): 2.7 nM | IC50 [1]: 17 nM | IC50 [2]: 82 nM | IC50 (RET-V804L): 15 nM | IC50 (RET-wild type; Ba/F3, compound 2 hours, read-out: RET-wild type IC50): 10 nM

Compound: COc1cc2cc(-c3ccc(CC(=O)Nc4cc(C(C)(C)C(F)(F)F)n[nH]4)cc3)cnc2cc1OC [Ref Ex. 2, 2-[4-(6,7-Dimethoxyquinolin-3-yl)phenyl]-N-[3-(1,1,1-trifluoro-2-methylpropan-2-yl)-1H-pyrazol-5-yl]-acetamide, reference compound]
IC50 (KDR kinase; [8]): 16 nM | IC50 (RET-wild type; [6]): 5 nM
